Key:
Assay type in all cases: binding
[1] = molecular target: T1, Lsd18 (Streptomyces lasalocidi, UniProt B5M9L6); test: bound FAD released by heating ([…] °C, […] min), absorbance at […] nm; details: co-purified FAD; 20 mM Tris pH 8.5, 150 mM NaCl
T1 construct: full-length gene in pCold (NdeI/EcoRI), E. coli BL21(DE3) with chaperone plasmid pG-KJE8, Ni beads and gel filtration; reductively ethylated for crystals only
T1 sequence (B5M9L6 1-472): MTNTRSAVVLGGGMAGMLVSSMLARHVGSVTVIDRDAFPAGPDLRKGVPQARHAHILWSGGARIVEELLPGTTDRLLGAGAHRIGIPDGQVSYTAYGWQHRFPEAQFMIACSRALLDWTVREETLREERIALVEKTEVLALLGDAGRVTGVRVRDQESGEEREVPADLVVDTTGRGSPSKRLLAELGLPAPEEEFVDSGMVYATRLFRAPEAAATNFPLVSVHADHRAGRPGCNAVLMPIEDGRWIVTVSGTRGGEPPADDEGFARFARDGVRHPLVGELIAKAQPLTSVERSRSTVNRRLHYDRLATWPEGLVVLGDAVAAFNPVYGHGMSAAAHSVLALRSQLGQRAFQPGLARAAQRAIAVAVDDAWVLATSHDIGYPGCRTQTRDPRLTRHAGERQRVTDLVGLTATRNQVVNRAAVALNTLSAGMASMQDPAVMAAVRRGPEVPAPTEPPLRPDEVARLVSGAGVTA

[2] = molecular target: T2, Lsd18 (Streptomyces lasalocidi, UniProt B5M9L6, T173M); test: bound FAD released by heating, absorbance at […] nm; details: co-purified FAD; 20 mM Tris pH 8.5, 150 mM NaCl
T2 construct: full-length gene in pCold (NdeI/EcoRI), E. coli BL21(DE3) with chaperone plasmid pG-KJE8, Ni beads and gel filtration; reductively ethylated for crystals only
T2 sequence (B5M9L6 whole entry T173M): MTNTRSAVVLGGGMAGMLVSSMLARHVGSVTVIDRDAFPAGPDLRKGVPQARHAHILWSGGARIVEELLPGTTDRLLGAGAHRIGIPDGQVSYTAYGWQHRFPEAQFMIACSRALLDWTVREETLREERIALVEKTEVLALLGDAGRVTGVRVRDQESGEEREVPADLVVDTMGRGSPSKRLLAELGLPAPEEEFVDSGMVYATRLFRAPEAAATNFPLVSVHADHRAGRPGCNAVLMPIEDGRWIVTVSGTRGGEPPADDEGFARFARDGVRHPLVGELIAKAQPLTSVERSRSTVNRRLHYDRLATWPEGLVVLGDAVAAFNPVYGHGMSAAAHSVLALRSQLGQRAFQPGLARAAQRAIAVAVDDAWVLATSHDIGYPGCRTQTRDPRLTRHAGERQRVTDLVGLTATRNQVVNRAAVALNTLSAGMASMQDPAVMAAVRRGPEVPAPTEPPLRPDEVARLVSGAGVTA

[3] = molecular target: T3, Lsd18 (Streptomyces lasalocidi, UniProt B5M9L6, S179M); test: bound FAD released by heating, absorbance at […] nm; details: co-purified FAD; 20 mM Tris pH 8.5, 150 mM NaCl
T3 construct: full-length gene in pCold (NdeI/EcoRI), E. coli BL21(DE3) with chaperone plasmid pG-KJE8, Ni beads and gel filtration; reductively ethylated for crystals only
T3 sequence (B5M9L6 whole entry S179M): as the sequence (B5M9L6 whole entry T173M) above, with M173T, S179M counted along it

[4] = molecular target: T4, Lsd18 (Streptomyces lasalocidi, UniProt B5M9L6, T173M/S179M); test: X-ray crystal structure ([…] Å); FAD content by absorbance at […] nm; details: co-purified FAD; reductively ethylated protein for crystals
T4 construct: full-length gene in pCold (NdeI/EcoRI), E. coli BL21(DE3) with chaperone plasmid pG-KJE8, Ni beads and gel filtration; reductively ethylated for crystals only
T4 sequence (B5M9L6 whole entry T173M/S179M): as the sequence (B5M9L6 whole entry T173M) above, with S179M counted along it

Cc1cc2nc3c(=O)[nH]c(=O)nc-3n(C[C@H](O)[C@H](O)[C@H](O)COP(=O)(O)OP(=O)(O)OC[C@H]3O[C@@H](n4cnc5c(N)ncnc54)[C@H](O)[C@@H]3O)c2cc1C [FAD]
FAD content [1]: the yellower the color of Lsd18 (attributed to bound FAD), the more stable it was
FAD content [2]: the FAD content in the mutants Lsd18-T189M, Lsd18-S195M, Lsd18-T189M-S195M increased
FAD content [3]: the FAD content in the mutants Lsd18-T189M, Lsd18-S195M, Lsd18-T189M-S195M increased
X-ray crystal structure (3.76 Å); FAD content by absorbance at 451 nm [4]: M189 forms a hydrogen bond with the cofactor FAD that could stabilize the binding
